Laboratory results: patent US4220587A, “Amino acid derivatives of 6-(2-amino-2-arylacetamido)penicillanic acids” (Mitsubishi Chemical Industries, Limited, priority 1975, dated 1980)
≈ marks a conversion by molar mass, not a printed value. Like-named read-outs stand apart in the source and are kept apart here.

Tests used:
Assay type in all cases: cell-based
[1] = tested on: Pseudomonas aeruginosa; test: MIC, agar dilution, Pseudomonas aeruginosa (strain not given); conditions: ATCC 15691 / ATCC 15692, 20 h, read-out: Minimum Inhibitory Concentration (MIC)
Procedure: (§1) The compounds of this invention were tested for antibacterial activity according to the following procedure. Nutrient broth and nutrient agar were prepared according to the conventional procedure. […] was used as a vehicle. The stock solution was prepared at 100 μg/ml of the test material in the vehicle. Two-fold dilutions were made with the vehicle and then the diluted stock solution was added to a petri dish and solidified by chilling. Test organisms were grown in the nutrient broth for 20 hours at 37° C. The hardened surface was inoculated with a loopful of the test organism solution containing 1×10^6 cells per milliliter and incubated for 20 hours at 37° C. At the end of this period, growth of the organism was observed. […] The following Table 1 summarizes the activity of representative compounds as active antibacterial agents, and compares them with the prior art compounds and the reference drug Sulbenicillin.

[2] = tested on: Proteus vulgaris (IFO 3045); test: MIC, agar dilution, Proteus vulgaris; conditions: Proteus vulgaris, IFO3045, 20 h, read-out: Minimum Inhibitory Concentration (MIC)
Procedure: as §1

[3] = tested on: Proteus morgani (IFO 3848); test: MIC, agar dilution, Proteus morgani; conditions: Morganella morganii, IFO3848, 20 h, read-out: Minimum Inhibitory Concentration (MIC)
Procedure: as §1

[4] = tested on: E. coli (NIHJ); test: MIC, agar dilution, E. coli; conditions: Escherichia coli, 20 h, read-out: Minimum Inhibitory Concentration (MIC)
Procedure: as §1

[5] = tested on: Proteus mirabilis (IFO 3849); test: MIC, agar dilution, Proteus mirabilis; conditions: Proteus mirabilis, IFO3849, 20 h, read-out: Minimum Inhibitory Concentration (MIC)
Procedure: as §1

[6] = tested on: Staph. aureus (FDA 209P); test: MIC, agar dilution, Staph. aureus; conditions: Staphylococcus aureus, FDA209P, 20 h, read-out: Minimum Inhibitory Concentration (MIC)
Procedure: as §1

[7] = tested on: Salmonella typhimurium (TA 100); test: MIC, agar dilution, Salmonella typhimurium; conditions: Salmonella enterica, read-out: Minimum Inhibitory Concentration (MIC)
Procedure: as §1

[8] = tested on: Pseudomonas aeruginosa M-11; test: MIC, agar dilution, Pseudomonas aeruginosa M-11; conditions: 20 h, read-out: Minimum Inhibitory Concentration (MIC)
Procedure: as §1
^*1 streptomycin resistant strain derived from Pseudomonas aeruginosa

[9] = tested on: Klebsiella pneumoniae (ATCC 25955); test: MIC, agar dilution, Klebsiella pneumoniae; conditions: Klebsiella pneumoniae, ATCC25955, 20 h, read-out: Minimum Inhibitory Concentration (MIC)
Procedure: as §1

[10] = tested on: Pseudomonas aeruginosa (ATCC 15691); test: MIC, agar dilution, Pseudomonas aeruginosa ATCC 15691; conditions: ATCC15691, 20 h, read-out: Minimum Inhibitory Concentration (MIC)
Procedure: as §1

[11] = tested on: Pseudomonas aeruginosa M-12; test: MIC, agar dilution, Pseudomonas aeruginosa M-12; conditions: ATCC15692, 20 h, read-out: Minimum Inhibitory Concentration (MIC)
Procedure: as §1
^*2 chloramphenicol resistant strain derived from Pseudomonas

[12] = tested on: Pseudomonas aeruginosa M-16; test: MIC, agar dilution, Pseudomonas aeruginosa M-16; conditions: M16, 20 h, read-out: Minimum Inhibitory Concentration (MIC)
Procedure: as §1
^*3 streptomycin, chloramphenicol and mercury resistant strain derive

SMILES	MIC [1] [µg/mL]	MIC [2] [µg/mL]	MIC [3] [µg/mL]	MIC [4] [µg/mL]	MIC [5] [µg/mL]	MIC [6] [µg/mL]	MIC ([7]; TYPHIMURIUM, 20 h) [µg/mL]	MIC [8] [µg/mL]	MIC [9] [µg/mL]	MIC [10] [µg/mL]	MIC [11] [µg/mL]	MIC [12] [µg/mL]	MIC ([7]; Salmonella typhimurium TA 100, ampicillin resistant strain, nutrient agar, 20 hours at 37° C.) [µg/mL]
CN[C@H](C)C(=O)N[C@@H](C(=O)N[C@@H]1C(=O)N2[C@@H]1SC(C)(C)[C@@H]2C(=O)O)c1ccccc1 [Compound 20]	37.5 (≈ 86.3 µM)	6.2 (≈ 14.3 µM)	9.3 (≈ 21.4 µM)	25 (≈ 57.5 µM)	9.3 (≈ 21.4 µM)	1.87 (≈ 4.3 µM)							
Cc1ccc(S(=O)(=O)N(C)C(C)C(=O)N[C@@H](C(=O)N[C@@H]2C(=O)N3[C@@H]2SC(C)(C)[C@@H]3C(=O)O)c2ccccc2)cc1 (stereo partly drawn) [Compound 19]	37 (≈ 62.8 µM)	12.5 (≈ 21.2 µM)	12.5 (≈ 21.2 µM)	25 (≈ 42.5 µM)	12.5 (≈ 21.2 µM)	0.15 (≈ 0.255 µM)	9 (≈ 15.3 µM)						
CC1(C)S[C@@H]2[C@H](NC(=O)[C@H](NC(=O)[C@H]3CCCN3C(=O)OCc3ccccc3)c3ccccc3)C(=O)N2[C@H]1C(=O)O [Compound 2, potassium 6-[D-2-(N-benzyloxycarbonyl-D-prolyl)amino-2-phenylacetamido]penicillanatemonohydrate]						1.25							
CC1(C)S[C@@H]2[C@H](NC(=O)[C@H](NC(=O)[C@H]3CCCCN3C(=O)OCc3ccccc3)c3ccc(O)cc3)C(=O)N2[C@H]1C(=O)O [Compound 8]						1.25 (≈ 2.05 µM)							
CC1(C)S[C@@H]2[C@H](NC(=O)[C@H](NC(=O)[C@H]3CCN3)c3ccccc3)C(=O)N2[C@H]1C(=O)O [Compound 28]	25 (≈ 57.8 µM)	6.2 (≈ 14.3 µM)	12.5 (≈ 28.9 µM)	50 (≈ 116 µM)	6.2 (≈ 14.3 µM)	3.75 (≈ 8.67 µM)							
CC1(C)S[C@@H]2[C@H](NC(=O)[C@H](NC(=O)[C@H]3CCN3)c3ccc(O)cc3)C(=O)N2[C@H]1C(=O)O [Compound 29]	37.5 (≈ 83.6 µM)	3.1 (≈ 6.91 µM)	3.1 (≈ 6.91 µM)	18.7 (≈ 41.7 µM)	3.1 (≈ 6.91 µM)	5 (≈ 11.1 µM)							
CC1(C)S[C@@H]2[C@H](NC(=O)[C@H](NC(=O)[C@H]3Cc4ccccc4CN3)c3ccccc3)C(=O)N2[C@H]1C(=O)O [Compound 15]		25 (≈ 49.2 µM)	25 (≈ 49.2 µM)	25 (≈ 49.2 µM)	25 (≈ 49.2 µM)	0.3 (≈ 0.59 µM)		25 (≈ 49.2 µM)	25 (≈ 49.2 µM)	50 (≈ 98.3 µM)	25 (≈ 49.2 µM)	25 (≈ 49.2 µM)	
CN[C@H](C)C(=O)N[C@@H](C(=O)N[C@@H]1C(=O)N2[C@@H]1SC(C)(C)[C@@H]2C(=O)O)c1ccc(O)cc1 [Compound 21]		4.7 (≈ 10.4 µM)	3.1 (≈ 6.88 µM)	12.3 (≈ 27.3 µM)	6.2 (≈ 13.8 µM)	1.87 (≈ 4.15 µM)							
CC1(C)S[C@@H]2[C@H](NC(=O)[C@H](NC(=O)[C@H]3CCCCN3)c3ccccc3)C(=O)N2[C@H]1C(=O)O [Compound 12]						1.25 (≈ 2.71 µM)							
Cc1ccc(S(=O)(=O)N(C)CC(=O)N[C@@H](C(=O)N[C@@H]2C(=O)N3[C@@H]2SC(C)(C)[C@@H]3C(=O)O)c2ccccc2)cc1 [Compound 22]	25 (≈ 43.5 µM)	25 (≈ 43.5 µM)	12.5 (≈ 21.8 µM)	25 (≈ 43.5 µM)	23 (≈ 40 µM)	0.31 (≈ 0.539 µM)							
Cc1ccc(S(=O)(=O)N(C)[C@H](C)C(=O)N[C@@H](C(=O)N[C@@H]2C(=O)N3[C@@H]2SC(C)(C)[C@@H]3C(=O)O)c2ccc(O)cc2)cc1 [Compound 18]						0.31 (≈ 0.513 µM)							
CC1(C)S[C@@H]2[C@H](NC(=O)[C@H](NC(=O)[C@H]3CCCN3)c3ccccc3)C(=O)N2[C@H]1C(=O)O [Compound 1]		1.5 (≈ 3.36 µM)	3.1 (≈ 6.94 µM)	6.2 (≈ 13.9 µM)	1.5 (≈ 3.36 µM)	0.45 (≈ 1.01 µM)			50 (≈ 112 µM)	12.5 (≈ 28 µM)	3.1 (≈ 6.94 µM)	3.1 (≈ 6.94 µM)	
CN(C(=O)OCc1ccccc1)[C@@H](C(=O)N[C@@H](C(=O)N[C@@H]1C(=O)N2[C@@H]1SC(C)(C)[C@@H]2C(=O)O)c1ccccc1)c1ccccc1 [Compound 25]		25 (≈ 39.6 µM)	25 (≈ 39.6 µM)	50 (≈ 79.3 µM)	25 (≈ 39.6 µM)	3.62 (≈ 5.74 µM)							12.5 (≈ 19.8 µM)
CC1(C)S[C@@H]2[C@H](NC(=O)[C@H](NC(=O)[C@H]3CCCN3C(=O)OCc3ccccc3)c3ccc(O)cc3)C(=O)N2[C@H]1C(=O)O [Compound 5]						2.5 (≈ 4.19 µM)							
